This assay has as its system GBM43 glioma xenografts. Kind of assay: Intracranial GBM43 xenograft: TMZ, XRT and CRAd-S-pk7-loaded NSCs. The assay is classed as in vivo, nude mice. The method, then:
FIGS. 43A, 43B and 43C illustrate the in vivo efficacy of CRAd-Survivin-pk7 (CRAd-S-pk7)-loaded NSCs and XRT-TMZ treatment against human-derived glioma xenografts according to one embodiment. Intracranial GBM43 (3.5×10^5 cells per animal) was established, and the animals were treated for 5 consecutive days beginning on day 6 after tumor cell implantation. (FIG. 43A): Survival of animals treated with escalating doses of intraperitoneally administered TMZ (0, 5, 10, or 30 mg/kg). (FIG. 43B): Survival of animals treated with XRT (2 Gy) or a combination of XRT (2 Gy) and TMZ (2.5, 5, 10, or 30 mg/kg). (FIG. 43C): Survival of animals treated with the optimized dose of 2 Gy XRT and 5 mg/kg TMZ in addition to 5×10^5 or 3×10^6 NSCs loaded with 50 infectious units of CRAd-S-pk7. […] Abbreviations: ND, not determined; ns, no significance; NSC, neural stem cell; TMZ, temozolomide; XRT, radiation therapy.
FIGS. 45A and 45B illustrate the scheduling of CRAd-Survivin-pk7 (CRAd-S-pk7)-loaded NSC administration in vivo according to one embodiment. (FIG. 45A): Survival of animals treated with both therapeutic scheduling protocols. […] For each treatment group, five images were taken using the […]20 objective, and the number of positive cells was quantified per field of view (right). *, p<0.05; **, p<0.01; ***, p<0.001. […]

Take `Cn1nnc2c(C(N)=O)ncn2c1=O` [TMZ, temozolomide]: for the setting “TMZ 5 mg/kg plus XRT 2 Gy ×5”, the “increase in survival vs XRT-treated animals” value was 7 days. Also, under “TMZ 5 mg/kg plus XRT 2 Gy ×5 (FIG. 43B)”, the median survival is 31 days.

These data come from patent publication US10709745B2, “Tropic cell based virotherapy for the treatment of cancer” (priority 2013, dated 2020).
